Paper PMC10874388, “Cyclic peptides discriminate BCL-2 and its clinical mutants from BCL-XL by engaging a single-residue discrepancy” (Nature Communications, 2024)
Where “and” joins values, the source holds several entries; their conditions need not be identical. Identical values can stand only once.

How the values were obtained:
Type in all cases: cell-based
[1] = tested on: Jurkat cells; assay: Cell viability assay (CellTiter-Glo), Jurkat
Method: (§1) The cell lines Jurkat (TIB-152), El4 (TIB-39), Daudi (ccl-213), RS4:11 (crl-1873), A549 (ccl-185), HepG2 (hb-8065) and PANC-1 (crl-1469) were purchased from ATCC (American Type Culture Collection), and MGC-803 (C6582) was purchased from Beyotime (https://www.beyotime.com/product/C6582.htm). […] Daudi and RS4:11 cells were cultured in RPMI-1640 medium (HyClone, SH30809.01) and 10% FBS (Gibco, 10099-141), whereas HepG2, MGC-803 and PANC-1 cells were cultured in MDEM (HyClone, SH30243.01). Cells were maintained at 37 °C under a humidified, 5% (v/v) CO2-containing atmosphere.
(§2) Cell viability was measured using CellTiter-Glo® 2.0 Reagent (Promega, G9242). […] After different inhibitors were added into serum-free medium and cultured for 4 h (RS4:11 for 6 h), FBS were supplemented to 10% and then incubated totally for 24 h or 48 h. Finally, the IC50 values were calculated based on measurements using a microplate reader (Thermo, Varioskan LUX). Statistical analysis was performed using software GraphPad Prism 7.0.

[2] = tested on: Daudi cells; assay: Cell viability assay (CellTiter-Glo), Daudi; settings: Daudi
Method: as §1, §2

[3] = tested on: RS4:11 cells; assay: Cell viability assay (CellTiter-Glo), RS4:11; settings: single wells; for raw luminescence reading / inhibition rate: RS4:11
Method: as §1, §2

CC1(C)CCC(c2ccc(Cl)cc2)=C(CN2CCN(c3ccc(C(=O)NS(=O)(=O)c4ccc(N[C@H](CCN5CCOCC5)CSc5ccccc5)c(S(=O)(=O)C(F)(F)F)c4)cc3)CC2)C1 [ABT263]
inhibition relative to 0 uM control, replicates ([1]; 0.375 uM): 36% and 32% (2×) and 29% and 31%
raw viability signal, replicates ([1]; 0.375 uM): 1239000 and 1266000 and 1356000 and 1351000 and 1403000 and 1379000
inhibition relative to 0 uM control, replicates ([1]; 0.75 uM): 33% and 36% and 41%
raw viability signal, replicates ([1]; 0.75 uM): 1132000 and 1330000 and 1241000 and 1225000 and 1265000 and 1179000
inhibition relative to 0 uM control, replicates ([1]; 1.5 uM): 44% and 41% and 40% and 37% and 34%
raw viability signal, replicates ([1]; 1.5 uM): 1078000 and 1124000 and 1172000 and 1189000 and 1263000 and 1304000
inhibition relative to 0 uM control, replicates ([1]; 3 uM): 44% and 39% and 40%
raw viability signal, replicates ([1]; 3 uM): 1152000 and 1105000 and 1149000 and 1214000 and 1192000 and 1143000
inhibition relative to 0 uM control, replicates ([1]; 6 uM): 47% and 44% and 41%
raw viability signal, replicates ([1]; 6 uM): 1071000 and 1059000 and 1122000 and 1132000 and 1181000 and 1149000
inhibition relative to 0 uM control, replicates ([1]; 12 uM): 60% and 56% and 54% and 53%
raw viability signal, replicates ([1]; 12 uM): 855500 and 799300 and 877600 and 917700 and 934900 and 865100
inhibition at 0.375 µM ([1]; Homo sapiens, 0.375 uM, read-out: inhibition relative to 0 uM control, replicates): 38%
inhibition at 0.75 µM ([1]; Homo sapiens, 0.75 uM, read-out: inhibition relative to 0 uM control, replicates): 43%
inhibition at 1.5 µM ([1]; Homo sapiens, 1.5 uM, read-out: inhibition relative to 0 uM control, replicates): 46%
inhibition at 3 µM ([1]; Homo sapiens, 3 uM, read-out: inhibition relative to 0 uM control, replicates): 42%
inhibition at 6 µM ([1]; Homo sapiens, 6 uM, read-out: inhibition relative to 0 uM control, replicates): 46%
inhibition at 12 µM ([1]; Homo sapiens, 12 uM, read-out: inhibition relative to 0 uM control, replicates): 57%
inhibition relative to 0 uM control, replicates ([2]; 0.78125 uM): -13% and 6.58% and 11% and 14% and -14% and 9%
raw viability signal, replicates ([2]; 0.78125 uM): 1671 and 1386 and 1318 and 1281 and 1698 and 1345
inhibition relative to 0 uM control, replicates ([2]; 1.5625 uM): 12% and 28% and 13% and 5% and 2.67% and -0.427%
raw viability signal, replicates ([2]; 1.5625 uM): 1303 and 1062 and 1294 and 1413 and 1444 and 1490
inhibition relative to 0 uM control, replicates ([2]; 3.125 uM): 25% and 4% and 5% and 17% and 29% and 48%
raw viability signal, replicates ([2]; 3.125 uM): 1117 and 1426 and 1406 and 1238 and 1059 and 765.3
inhibition relative to 0 uM control, replicates ([2]; 6.25 uM): 51% and 31% and 24% and 23% and 20% and 40%
raw viability signal, replicates ([2]; 6.25 uM): 729.7 and 1018 and 1129 and 1147 and 1185 and 883.7
inhibition relative to 0 uM control, replicates ([2]; 12.5 uM): 38% and 61% and 46% and 56% and 44% and 48%
raw viability signal, replicates ([2]; 12.5 uM): 920.2 and 574.4 and 802.0 and 653.5 and 827.6 and 767.5
inhibition relative to 0 uM control, replicates ([2]; 25 uM): 71% and 70% and 63% and 61% (2×) and 82%
raw viability signal, replicates ([2]; 25 uM): 436.2 and 441.9 and 545.0 and 582.0 and 581.4 and 260.8
inhibition at 0.000488281 µM ([3]; Homo sapiens, RS4-11, RS4:11, 0.488281 nM, read-out: inhibition rate): 67%
inhibition at 0.000976562 µM ([3]; Homo sapiens, RS4-11, RS4:11, 0.976562 nM, read-out: inhibition rate): 81%
inhibition at 0.00195312 µM ([3]; Homo sapiens, RS4-11, RS4:11, 1.95312 nM, read-out: inhibition rate): 97%
inhibition at 0.00390625 µM ([3]; Homo sapiens, RS4-11, RS4:11, 3.90625 nM, read-out: inhibition rate): 99%
inhibition at 0.0078125 µM ([3]; Homo sapiens, RS4-11, RS4:11, 7.8125 nM, read-out: inhibition rate): 100%
inhibition at 0.015625 µM ([3]; Homo sapiens, RS4-11, RS4:11, 15.625 nM, read-out: inhibition rate): 100%
inhibition at 0.03125 µM ([3]; Homo sapiens, RS4-11, RS4:11, 31.25 nM, read-out: inhibition rate): 100%
inhibition at 0.0625 µM ([3]; Homo sapiens, RS4-11, RS4:11, 62.5 nM, read-out: inhibition rate): 100%
inhibition at 0.125 µM ([3]; Homo sapiens, RS4-11, RS4:11, 125 nM, read-out: inhibition rate): 100%
inhibition at 0.25 µM ([3]; Homo sapiens, RS4-11, RS4:11, 250 nM, read-out: inhibition rate): 100%
inhibition at 0.5 µM ([3]; Homo sapiens, RS4-11, RS4:11, 500 nM, read-out: inhibition rate): 100%
inhibition at 1 µM ([3]; Homo sapiens, RS4-11, RS4:11, 1000 nM, read-out: inhibition rate): 100%
raw luminescence reading ([3]; 0.244141 nM): 319400 and 358600 and 385500 and 388700 and 346000 and 423800
raw luminescence reading ([3]; 0.488281 nM): 145900 and 162000 and 168900 and 156800 and 153400 and 152700
inhibition rate ([3]; 0.488281 nM, 0.000488281 µM): 63% and 62% and 65% and 66%
raw luminescence reading ([3]; 0.976562 nM): 85360 and 92040 and 97200 and 90740 and 85390 and 85400
inhibition rate ([3]; 0.976562 nM, 0.000976562 µM): 79% and 78% and 80%
raw luminescence reading ([3]; 1.95312 nM): 14920 and 16290 and 16450 and 15190 and 15570 and 13650
inhibition rate ([3]; 1.95312 nM, 0.00195312 µM): 96%
raw luminescence reading ([3]; 3.90625 nM): 2969 and 3143 and 3110 and 2929 and 2545 and 2763
raw luminescence reading ([3]; 7.8125 nM): 1394 and 1471 and 1609 and 1459 and 1530 and 1294
raw luminescence reading ([3]; 15.625 nM): 649.5 and 693.0 and 701.2 and 740.3 and 855.6 and 501.0
raw luminescence reading ([3]; 31.25 nM): 598.7 and 870.6 and 1121 and 921.5 and 938.2 and 1010
raw luminescence reading ([3]; 62.5 nM): 361.9 and 494.9 and 587.5 and 446.2 and 364.9 and 488.9
raw luminescence reading ([3]; 125 nM): 503.8 and 401.2 and 517.1 and 644.2 and 454.2 and 588.4
raw luminescence reading ([3]; 250 nM): 1061 and 1147 and 1486 and 1266 and 1158 and 1293
raw luminescence reading ([3]; 500 nM): 507.0 and 488.7 and 440.9 and 484.8 and 485.1 and 504.0
raw luminescence reading ([3]; 1000 nM): 274.1 and 376.6 and 535.0 and 446.7 and 313.0 and 467.2
